Columns and labels:
[1] = tested on: sub-genomic HCV NS3-NS5B replicon of genotype 1a in Huh-7 cells; experiment: Replicon Luciferase Cell Based Assay, genotype 1a; design: species or system HCV genotype 1a; conditions: Hepatitis C virus, Huh-7, 48 hours
Procedure: (§1) A 10 mM stock solution in DMSO of each test compound was further diluted in DMSO in the first row of a 384-well, V-bottom microplate, to give 100 times the top concentration of the required dilution series. Dilutions of compound were prepared in 1:3 serial dilutions from the first row onwards robotically. A robot was also used to transfer 0.5 μL volumes from each dilution well into wells of white 384-well assay plates (Nunc #164610). Control wells received 0.5 μL of DMSO alone. Plates were made in duplicate for measuring HCV replication and cytotoxicity in the replicon cell lines.
(§2) Suspensions were prepared from cultures of Huh-7 cells stably transfected with sub-genomic HCV NS3—NS5B replicons of either genotype 1b (the ET subline described by Pietschmann, T., Lohmann, V., Kaul, A., Krieger, N., Rinck, G., Rutter, G., Strand, D. & Bartenschlager, R., Journal of Virology, 2002, 76, 4008-4021) or genotype 1a linked to a firefly luciferase reporter gene. Monolayers nearing confluency were stripped from growth flasks with versene-trypsin solution and the cells re-suspended in assay medium comprising DMEM (Invitrogen #11965-092) supplemented with 5% v/v foetal calf serum, 1% v/v non-essential amino acids solution, 100 units/ml penicillin, 100 μg/ml streptomycin and 2 mM GlutaMAX-1. 50 μL of suspension containing 5,000 cells of either genotype 1b or genotype 1a luciferase replicon were added to all wells, except medium controls, of the assay plate with a Multidrop Combi (Thermo Scientific Corporation) and the plate incubated for 48 hours at 37° C. in a 5% CO2 atmosphere. A solution of Steady-Glo cytolytic buffer/luciferase substrate (Promega #E2550) was prepared according to the manufacturer's instructions, and 20 μL were added to each well with a Multidrop Combi. To measure cytotoxicity, a solution of CellTiter-Glo Luminescent Cell Viability Assay reagent (Promega #G7573) was prepared according to the manufacturer's instructions, and 20 ul were added to each well with a Multidrop Combi. The plates were then read for luminescence on an Envision Multilabel Reader (Perkin Elmer)
(§3) Potency: The luminescence values from all compound-free wells containing cells were averaged to obtain a positive control value. The mean luminescence value from the compound-free wells that had received no cells was used to provide the negative (background) control value. After the subtraction of the mean background from all values, the readings from wells at each compound concentration were expressed as a percentage of the positive control signal. The quantifiable and specific reduction of luciferase signal in the presence of a drug is a direct measure of replicon inhibition. The BioAssay application and XC50 module were used to plot the curve of percentage inhibition against compound concentration and derive the 50% inhibitory concentration (IC50) for the compound.

[2] = tested on: sub-genomic HCV NS3-NS5B replicon of genotype 1b (ET subline) in Huh-7 cells; experiment: Replicon Luciferase Cell Based Assay, genotype 1b; design: species or system HCV genotype 1b; conditions: Hepatitis C virus, Huh-7, 48 h, read-out: Genotype 1b (IC50 μM)
Procedure: as §1, §2, §3

Row | Compound | IC50 [1] | IC50 [2]
1 | COc1ccc2c(O[C@@H]3C[C@H]4C(=O)N[C@]5(C(=O)NS(=O)(=O)C6CC6)C[C@H]5/C=C\CCCCC[C@H](NC(=O)N5CCC(CC(N)=O)CC5)C(=O)N4C3)cc(-c3nc(C(C)C)cs3)nc2c1C [Example 23, (2R,6S,13aS,14aR,16aS)-6-({[4-(2-amino-2-oxoethyl)-1-piperidinyl]carbonyl}amino)-N-(cyclopropylsulfonyl)2-{[8-methyl-2-[4-(1-methylethyl)-1,3-thiazol-2-yl]-7-(methyloxy)-4-quinolinyl]oxy}-5,16-dioxo-1,2,3,6,7,8,9,10,11,13a,14,15,16,16a-tetradecahydrocyclopropa[e]pyrrolo[1,2-a][1,4]diazacyclopentadecine-14a(5H)-carboxamide] | < 0.01 µM | < 0.01 µM
2 | COc1ccc2c(O[C@@H]3C[C@H]4C(=O)N[C@]5(C(=O)NS(=O)(=O)C6CC6)C[C@H]5/C=C\CCCCC[C@H](NC(=O)Nc5ccccc5)C(=O)N4C3)cc(-c3nc(C(C)C)cs3)nc2c1C [Example 1, (2R,6S,13aS,14aR,16aS)-N-(cyclopropylsulfonyl)-2-{[8-methyl-2-[4-(1-methylethyl)-1,3-thiazol-2-yl]-7-(methyloxy)-4-quinolinyl]oxy}-5,16-dioxo-6-{[(phenylamino)carbonyl]amino}-1,2,3,6,7,8,9,10,11,13a,14,15,16,16a-tetradecahydrocyclopropa[e]pyrrolo[1,2-a][1,4]diazacyclopentadecine-14a(5H)-carboxamide] | < 0.01 µM | < 0.01 µM
3 | CCN(CC)C(=O)N[C@H]1CCCCC/C=C\[C@@H]2C[C@@]2(C(=O)NS(=O)(=O)C2CC2)NC(=O)[C@@H]2C[C@@H](Oc3cc(-c4nc(C(C)C)cs4)nc4c(C)c(OC)ccc34)CN2C1=O [Example 2, (2R,6S,13aS,14aR,16aS)-N-(cyclopropylsulfonyl)-6-{[(diethylamino)carbonyl]amino}-2-{[8-methyl-2-[4-(1-methylethyl)-1,3-thiazol-2-yl]-7-(methyloxy)-4-quinolinyl]oxy}-5,16-dioxo-1,2,3,6,7,8,9,10,11,13a,14,15,16,16a-tetradecahydrocyclopropa[e]pyrrolo[1,2-a][1,4]diazacyclopentadecine-14a(5H)-carboxamide] | < 0.01 µM | < 0.01 µM
4 | CCN(C)C(=O)N[C@H]1CCCCC/C=C\[C@@H]2C[C@@]2(C(=O)NS(=O)(=O)C2CC2)NC(=O)[C@@H]2C[C@@H](Oc3cc(-c4nc(C(C)C)cs4)nc4c(C)c(OC)ccc34)CN2C1=O [Example 17] | < 0.01 µM | < 0.01 µM
5 | COc1ccc2c(O[C@@H]3C[C@H]4C(=O)N[C@]5(C(=O)NS(=O)(=O)C6CC6)C[C@H]5/C=C\CCCCC[C@H](NC(=O)N5CCC5)C(=O)N4C3)cc(-c3nc(C4CC4)cs3)nc2c1C [Example 32, (2R,65,13aS,14aR,16aS,Z)-6-(azetidine-1-carboxamido)-N-(cyclopropylsulfonyl)-2-(2-(4-cyclopropylthiazol-2-yl)-7-methoxy-8-methylquinolin-4-yloxy)-5,16-dioxo-1,2,3,5,6,7,8,9,10,11,13a,14,14a,15,16,16a-hexadecahydrocyclopropa[e]pyrrolo[1,2-a][1,4]diazacyclopentadecine-14a-carboxamide] | < 0.01 µM | < 0.01 µM
6 | COc1ccc2c(O[C@@H]3C[C@H]4C(=O)N[C@]5(C(=O)NS(=O)(=O)C6CC6)C[C@H]5/C=C\CCCCC[C@H](NC(=O)N5CCC(C)(C)C5)C(=O)N4C3)cc(-c3nc(C4CC4)cs3)nc2c1C [Example 34, (2R,6S,13a-5,1-aR,16aS,Z)-N-(cyclopropylsulfonyl)-2-(2-(4-cyclopropylthiazol-2-yl)-7-methoxy-8-methylquinolin-4-yloxy)-6-(3,3-dimethylpyrrolidine-1-carboxamido)-5,16-dioxo-1,2,3,5,6,7,8,9,10,11,13a,14,14a,15,16,16a-hexadecahydrocyclopropa[e]pyrrolo[1,2-a][1,4]diazacyclopentadecine-14a-carboxamide] | < 0.01 µM | < 0.01 µM
7 | C=C1CCN(C(=O)N[C@H]2CCCCC/C=C\[C@@H]3C[C@@]3(C(=O)NS(=O)(=O)C3CC3)NC(=O)[C@@H]3C[C@@H](Oc4cc(-c5nc(C6CC6)cs5)nc5c(Cl)c(OC)ccc45)CN3C2=O)CC1 [Example 27, (2R,6S,13aS,14aR,16aS,Z)-2-(8-chloro-2(4-cyclopropylthiazol-2-yl)-7-methoxyquinolin-4-yloxy)-N-(cyclopropylsulfonyl)-6-(4-methylenepiperidine-1-carboxamido)-5,16-dioxo-1,2,3,5,6,7,8,9,10,11,13a,14,14a,15,16,16a-hexadecahydrocyclopropa[e]pyrrolo[1,2-a][1,4]diazacyclopentadecine-14a-carboxamide] | < 0.01 µM | < 0.01 µM
8 | CCN(CC)C(=O)N[C@H]1CCCCC/C=C\[C@@H]2C[C@@]2(C(=O)NS(=O)(=O)C2CC2)NC(=O)[C@@H]2C[C@@H](Oc3cc(-c4nc(C(F)(F)F)cs4)nc4c(Cl)c(OC)ccc34)CN2C1=O [Example 29, Cycloprobanesulfonic acid [18-[8-chloro-7-methoxy-2-(4-trifluoromethyl-thiazol-2-yl)-quinolin-4-yloxy]-14-(3,3-diethyl-ureido)-2,15-dioxo-3,16-diaza-tricyclo[14.3.0.04,6]nonadec-7-ene-4-carbonyl]-amide] | < 0.01 µM | < 0.01 µM
9 | COc1ccc2c(O[C@@H]3C[C@H]4C(=O)N[C@]5(C(=O)NS(=O)(=O)C6CC6)C[C@H]5/C=C\CCCCC[C@H](NC(=O)N5CCOCC5)C(=O)N4C3)cc(-c3nc(C(C)C)cs3)nc2c1C [Example 14] | < 0.01 µM | < 0.01 µM
10 | COc1ccc2c(O[C@@H]3C[C@H]4C(=O)N[C@]5(C(=O)NS(=O)(=O)C6CC6)C[C@H]5/C=C\CCCCC[C@H](NC(=O)N5CCCC5)C(=O)N4C3)cc(-c3nc(C(C)C)cs3)nc2c1C [Example 15, (2R,6S,13aS,14aR,16aS)-N-(cyclopropylsulfonyl)-2-{[8-methyl-2-[4-(1-methylethyl)-1,3-thiazol-2-yl]-7-(methyloxy)-4-quinolinyl]oxy}-5,16-dioxo-6-[(1-pyrrolidinylcarbonyl)amino]-1,2,3,6,7,8,9,10,11,13a,14,15,16,16a-tetradecahydrocyclopropa[e]pyrrolo[1,2-a][1,4]diazacyclopentadecine-14a(5H)-carboxamide] | < 0.01 µM | < 0.01 µM
11 | COc1ccc2c(O[C@@H]3C[C@H]4C(=O)N[C@]5(C(=O)NS(=O)(=O)C6CC6)C[C@H]5/C=C\CCCCC[C@H](NC(=O)N(C)C(C)C)C(=O)N4C3)cc(-c3nc(C4CC4)cs3)nc2c1C [Example 7, (2R,6S,13aS,14aR,16aS)-N-(cyclopropylsulfonyl)-2-{[2-(4-cyclopropyl-1,3-thiazol-2-yl)-8-methyl-7-(methyloxy)-4-quinolinyl]oxy}-6-({[methyl(1-methylethyl)amino]carbonyl}amino)-5,16-dioxo-1,2,3,6,7,8,9,10,11,13a,14,15,16,16a-tetradecahydrocyclopropa[e]pyrrolo[1,2-a][1,4]diazacyclopentadecine-14a(5H)-carboxamide] | < 0.01 µM | < 0.01 µM
12 | COc1ccc2c(O[C@@H]3C[C@H]4C(=O)N[C@]5(C(=O)NS(=O)(=O)C6CC6)C[C@H]5/C=C\CCCCC[C@H](NC(=O)N(C)C(C)(C)C)C(=O)N4C3)cc(-c3nc(C4CC4)cs3)nc2c1C [Example 9, (2R,6S,13aS,14aR,16aS)-N-(cyclopropylsulfonyl)-2-{[2-(4-cyclopropyl-1,3-thiazol-2-yl)-8-methyl-7-(methyloxy)-4-quinolinyl]oxy}-6-({[(1,1-dimethylethyl)(methyl)amino]carbonyl}amino)-5,16-dioxo-1,2,3,6,7,8,9,10,11,13a,14,15,16,16a-tetradecahydrocyclopropa[e]pyrrolo[1,2-a][1,4]diazacyclopentadecine-14a(5H)-carboxamide] | < 0.01 µM | < 0.01 µM
